Measurements published in PMC11129182, “Development of Inhibitors, Probes, and PROTAC Provides a Complete Toolbox to Study PARK7 in the Living Cell” (Journal of Medicinal Chemistry, 2024).
Read-outs that look alike come from different tables or passages of the source.

Columns and labels:
A549 cells = assay: Cell viability assay (CellTiter-Blue); type: cell-based, human; conditions: up to 5 μM, 72 h incubation
Method: 5 × 10^3 A549 cells were seeded into 96-well plates. The following day, the indicated final concentrations of JYQ-164 and JYQ-173 were added to the cells, and DMSO was used as a control. Inhibitors were renewed at 36 h, and cells were incubated with them an additional 36 h. Cell viability was measured using the CellTiter-Blue viability assay (Promega). Relative survival was normalized to the DMSO-treated sample and corrected for background signal. page 8: Figure S6. Cytotoxicity assay for JYQ-164 and JYQ-173 in A549 cells. ( A) PARK7 engagement of JYQ -164 and JYQ-173 in A459 cells. A549 cells were incubated with […] The reactions were stopped by addition of NuPAGE™ LDS sample buffer (4x) , followed by cell lysis, SDS-PAGE, fluorescence scanning, and immunoblott in g against PARK7 and β-actin. β-actin was used as a loading control. (B) A549 cells were incubated with indicated concentration of JYQ-164 (left panel) or JYQ-173 (right panel) for 72 h where the inhibitors were renewed after 36 h. Cell viability was measured using the CellTiter-Blue assay. Relative viability was normalized to untreated control and corrected for background signal. S8 (1 picture or pasted object on this page, not shown here)

[1] = target: T1, reactive cysteine sites of other proteins in A549 cells (Homo sapiens, UniProt O60664); conditions: 4 h, O60664_C39 Perilipin-3
T1 sequence (O60664 1-434): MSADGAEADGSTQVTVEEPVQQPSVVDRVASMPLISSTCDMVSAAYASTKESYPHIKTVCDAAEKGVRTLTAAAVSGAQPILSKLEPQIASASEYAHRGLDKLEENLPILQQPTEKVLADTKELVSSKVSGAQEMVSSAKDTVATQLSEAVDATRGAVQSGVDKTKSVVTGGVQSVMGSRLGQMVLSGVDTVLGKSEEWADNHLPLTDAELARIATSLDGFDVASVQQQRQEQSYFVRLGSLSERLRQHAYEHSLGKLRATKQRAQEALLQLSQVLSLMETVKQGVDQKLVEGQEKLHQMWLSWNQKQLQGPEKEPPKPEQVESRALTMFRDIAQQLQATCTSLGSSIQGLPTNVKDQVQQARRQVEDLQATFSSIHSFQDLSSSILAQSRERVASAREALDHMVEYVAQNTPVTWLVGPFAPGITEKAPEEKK
Description: (§1) Further, the samples were digested with tosylsulfonyl phenylalanyl chloromethyl ketone (TPCK)-treated trypsin and endoGluC to increase the coverage of protein sequences, especially the PARK7 peptide containing Cys106 residue. Peptides generated by digestion from replicates of each sample were labeled using TMT16-plex to perform tandem mass tag (TMT)-based quantitative proteomics profiling. Following the TMT labeling, all samples were pooled and the peptides conjugated to the DBIA probe were enriched by streptavidin beads and analyzed by LC-MS/MS (Figure 3A). […] All cysteines were represented with the shortest peptide by using the average CR values of all the peptides with the same modified cysteine from the same protein in the same condition.[16],[27],[28]
(§2) A549 cells were seeded into 10 cm plates in 10 mL of media. […] The cells were then washed two times with cold PBS (1 mL per 10 cm plate) and collected by scraping them with a cell scraper. Cells were lysed by sonication in ice-cold PBS and centrifuged at 15,000 rpm for 2 min to remove cell debris. The BCA Gold protein assay (Thermo Fisher Scientific) was performed to determine protein concentration. Each sample (100 μg) was labeled with 500 μM DBIA probe for 1 h in the dark at room temperature (RT). Excess DBIA and disulfide bonds were quenched and reduced, respectively, using 5 mM dithiothreitol (DTT) for 30 min in the dark at RT. Reduced disulfide bonds were alkylated using 20 mM iodoacetamide for 30 min in the dark at RT. […] Digested peptides were labeled with TMTpro16-plex reagents (Thermo Fisher Scientific) in a 1:4 ratio by mass (peptides/TMT reagents) for 1 h at RT. Excess TMT reagent was quenched with 5 μL 6% hydroxylamine for 15 min at RT. All samples were then pooled and lyophilized.
(§3) Nonspecific binding peptides were washed away using the following procedure: 3 × 1 mL of PBS pH 7.4, 2 × 1 mL of PBS with 0.1% SDS pH 7.4, and 3 × 1 mL of HPLC-grade water. DBIA probe-containing peptides were eluted using 700 μL of 50% acetonitrile in 0.1% TFA, lyophilized using a Speedvac, and desalted using a handmade mini-SPE column (10% sorbent material of a Waters, OASIS 1 cm^3 HLB 30 mg cartridge). Column was equilibrated with 200 μL of 90% acetonitrile and 3 × 200 μL of 10 mM NH4HCO3 pH 8.4. The dried sample was dissolved in 200 μL of 10 mM NH4HCO3 pH 8.4, loaded onto the column, washed 3x with 200 μL of 10 mM NH4HCO3 pH 8.4, and eluted into 3 fractions with 150 μL of 10, 20, and 50% acetonitrile (in 10 mM NH4HCO3). Samples were then lyophilized.
(§4) 2.2.04 (www.matrixscience.com) for protein identification. Mascot searches were done with 10 ppm and 0.02 Da deviation for the precursor and fragment mass, respectively, and the enzymes trypsin and EndoGluC was specified, up to three missed cleavages were allowed. Methionine oxidation, acetyl (protein N-term), and DBIA on Cys were set as a variable modification. Carbamidomethyl on Cys and TMTpro on Lys and N-term were set as a fixed modification. Peptides with an FDR <1% were accepted. Peptides were only retained, if they were quantified and if there was exactly one DBIA modification on the peptide. The values for each TMT channel were normalized to the average of the values for the DMSO samples for the same peptide, and these values were named CR. For each peptide, the first entry of the Master Protein Accessions column was chosen as the Master Protein Accession, and the residue number of the cysteine modified by DBIA within the entire protein sequence was determined. Using this information, each peptide was assigned an identifier consisting of the Master Protein Accession and the residue number of the modified cysteine to assign each peptide to the respective modified cysteine residue. Within each replicate, CR values for all peptides with the same identifier (and thus the same modified cysteine residue) were combined by averaging and only the shortest Annotated Sequence was kept as the final Annotated Sequence.

[2] = target: reactive cysteine sites of other proteins in A549 cells (Homo sapiens, UniProt P04080); conditions: 4 h, P04080_C3 Cystatin-B
Description: as §1, §2, §3, §4

[3] = target: reactive cysteine sites of other proteins in A549 cells (Homo sapiens, UniProt P40222); conditions: 4 h, P40222_C87 Alpha-taxilin
Description: as §1, §2, §3, §4

[4] = target: reactive cysteine sites of other proteins in A549 cells (Homo sapiens, UniProt Q13085); conditions: 4 h, Q13085_C1297 Acetyl-CoA carboxylase 1
Description: as §1, §2, §3, §4

[5] = tested on: other proteins of A549 cells; assay: TMT-based global proteomic profiling in A549 cells, other proteins; type: cell-based, Homo sapiens; conditions: 8 h; for Abundance Ratio: (compound) / (1 DMSO) / Abundance Ratio: log2 (compound) / (1 DMSO): A549, 5 μM
Method: (§5) A549 cells were seeded into 10 cm plates in 10 mL of media. […] Cells were lysed using a 5% SDS lysis buffer (100 mM Tris-HCl, pH 7.6) and were incubated at 95 °C for 4 min. Protein determination was performed using the Pierce BCA Gold protein assay. 100 μg of protein of each sample was reduced and alkylated, and excess iodoacetamide was quenched using 5 mM TCEP, 15 mM iodoacetamide, and 10 mM DTT, respectively. The protein was pelleted down using chloroform/methanol precipitation, and the resulting pellets were resolubilized in 40 mM HEPES pH 8.4. […] The Pierce BCA Gold protein assay was used to determine the peptide concentration. The peptides were labeled with TMTpro Label Reagents in a 1:4 ratio by mass (peptides/TMT reagents) for 1 h at RT. Five μL of 6% hydroxylamine was added to quench excess TMT reagent and incubated for 15 min at RT. Samples were pooled and lyophilized. The sample was subsequently fractionated on an Agilent 1200 series HPLC system (Agilent Technologies). 75 μg of the pooled sample was dissolved in solvent A (10 mM NH4HCO3, pH 8.4), injected onto, and eluted from an Agilent Eclipse Plus C18 2.1 × 150 mm 3.5 μm column (Agilent Technologies). The gradient was run from 2 to 90% solvent B (10 mM NH4HCO3, pH 8.4 final concentration, 20/80 water/acetonitrile v/v) in 30 min at a flow rate of 200 μL/min. Twelve fractions were made; every 30 s a fraction was collected in a vial, and the eluate of the next 30 s was collected in the next vial and so on until it loops back to the first vial (5 loops of 6 min each). Afterward, the samples were lyophilized.
2.2.07 (www.matrixscience.com) for protein identification. Mascot searches were with 10 ppm and 0.02 Da deviation for precursor and fragment mass, respectively. Enzyme specificity was set to trypsin. Up to two missed cleavages were allowed. Methionine oxidation and acetyl on protein N-terminus were set as variable modifications. Carbamidomethyl on Cys and TMTpro on Lys and N-terminus were set as fixed modifications. Protein FDR of 1% was set. Normalization was on total peptide amount. The values for each TMT channel were normalized to the average of the values for the DMSO samples for the same peptide, and these values were named FC. The log2 FC values of all replicates for the same master protein were averaged to give the “Average log2 FC”. A one-sample t test was performed against the null hypothesis of log2 FC = 0, and the resulting −log10p values were reported for each protein. The volcano plot was plotted using GraphPad Prism v.9.01.

PARK7 [6] = target: T2, PARK7 (Homo sapiens, UniProt Q99497); assay: Activity evaluation of PROTACs in cells (PARK7 degradation, immunoblot); design: Dmax: dose or concentration left out as unconfirmed
T2 sequence (Q99497 1-189): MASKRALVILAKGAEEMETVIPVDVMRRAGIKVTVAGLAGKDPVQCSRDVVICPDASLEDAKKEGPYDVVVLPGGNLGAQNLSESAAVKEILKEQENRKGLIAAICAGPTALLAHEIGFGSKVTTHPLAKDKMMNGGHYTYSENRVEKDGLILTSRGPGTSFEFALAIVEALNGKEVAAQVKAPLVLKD
Method: A549 cells were seeded into 6-well plates. The next day after seeding, cells were incubated with the indicated concentrations of indicated PROTACs for 8 h. The cells were then washed with PBS and collected. The collected cell pellets were lysed with Tris-triton buffer as described above. The prepared cell lysate of each sample (10 μL) was added 5 μL 3× LDS + 5% β-mercaptoethanol, and boiled for 10 min.

PARK7 [7] = target: T2, PARK7; assay: TMT-based global proteomic profiling in A549 cells, PARK7; type: cell-based; design: incubating A549 cells with 5 μM JYQ-194 for 8 h, along with 5 μM JYQ-173 and DMSO as a control; endogenous in cells; host or cells: A549; conditions: 5 μM, 8 h
Method: as §5, with “Twelve fractions were made; every 30 s a fraction was collected in a vial, and the eluate of the next 30 s was collected in the next vial and so on until it loops back to the first vial (5 loops of 6 min each). Afterward, the samples were lyophilized.” left out

Sequence of reactive cysteine sites of other proteins in A549 cells (Homo sapiens, UniProt P04080) (P04080 whole entry): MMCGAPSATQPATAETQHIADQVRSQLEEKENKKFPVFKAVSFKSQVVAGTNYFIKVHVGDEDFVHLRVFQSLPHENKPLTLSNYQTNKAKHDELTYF
Sequence of reactive cysteine sites of other proteins in A549 cells (Homo sapiens, UniProt P40222) (P40222 whole entry): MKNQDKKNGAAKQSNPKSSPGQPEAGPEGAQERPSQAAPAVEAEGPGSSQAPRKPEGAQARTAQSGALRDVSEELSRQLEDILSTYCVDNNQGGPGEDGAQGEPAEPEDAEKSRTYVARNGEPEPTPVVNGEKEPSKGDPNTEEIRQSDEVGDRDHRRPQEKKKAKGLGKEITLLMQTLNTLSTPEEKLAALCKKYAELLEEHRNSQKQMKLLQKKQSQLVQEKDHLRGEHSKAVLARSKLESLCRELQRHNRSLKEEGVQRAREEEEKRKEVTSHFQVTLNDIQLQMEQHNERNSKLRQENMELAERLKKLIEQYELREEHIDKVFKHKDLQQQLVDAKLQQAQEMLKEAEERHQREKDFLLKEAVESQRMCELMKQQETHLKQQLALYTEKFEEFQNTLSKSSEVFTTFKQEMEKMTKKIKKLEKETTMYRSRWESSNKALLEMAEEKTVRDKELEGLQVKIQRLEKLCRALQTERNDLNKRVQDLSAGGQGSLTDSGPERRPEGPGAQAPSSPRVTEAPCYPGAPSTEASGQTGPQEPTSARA

N#CN1CC[C@@H](C(=O)Nc2nc3c(s2)CN(C(=O)c2cccc(S(=O)(=O)N4CCOCC4)c2)CC3)C1 [Compound 340, (R)-1-Cyano-N-(5-(3-(morpholinosulfonyl)benzoyl)-4,5,6,7-tetrahydrothiazolo[5,4-c]pyridin-2-yl)pyrrolidine-3-carboxamide]
cytotoxicity (A549 cells): did not show any cytotoxicity
Average log2 CR (DMSO/inhibitor) ([1]; A549, 0.5 µM): 0.5943
Average log2 CR (DMSO/inhibitor) ([1]; A549, 5 µM): 0.5954
Average log2 CR (DMSO/inhibitor) ([2]; A549, 0.5 µM): 1.056
Average log2 CR (DMSO/inhibitor) ([2]; A549, 5 µM): 0.758
Average log2 CR (DMSO/inhibitor) ([3]; A549, 0.5 µM): 0.6134
Average log2 CR (DMSO/inhibitor) ([3]; A549, 5 µM): 0.7033
Average log2 CR (DMSO/inhibitor) ([4]; A549, 0.5 µM): 0.8087
Average log2 CR (DMSO/inhibitor) ([4]; A549, 5 µM): 0.7839

N#CN1CC[C@@H](C(=O)Nc2nc3c(s2)CN(C(=O)c2cc(-n4cc(COCCOCCNc5cccc6c5C(=O)N(C5CCC(=O)NC5=O)C6=O)nn4)ccc2F)CC3)C1 (stereo partly shown) [JYQ-194]
Abundance Ratio: (compound) / (1 DMSO) ([5]; ESYT2 (A0FGR8)): 1.074
Abundance Ratio: log2 (compound) / (1 DMSO) ([5]; ESYT2 (A0FGR8)): 0.1157
Abundance Ratio: (compound) / (1 DMSO) ([5]; RBM47 (A0AV96)): 1.045
Abundance Ratio: log2 (compound) / (1 DMSO) ([5]; RBM47 (A0AV96)): 0.07722
Abundance Ratio: (compound) / (1 DMSO) ([5]; SMIM26 (A0A096LP01)): 1.081
Abundance Ratio: log2 (compound) / (1 DMSO) ([5]; SMIM26 (A0A096LP01)): 0.1302
Abundance Ratio: (compound) / (1 DMSO) ([5]; TTC26 (A0AVF1)): 0.975
Abundance Ratio: log2 (compound) / (1 DMSO) ([5]; TTC26 (A0AVF1)): -0.08647
Abundance Ratio: (compound) / (1 DMSO) ([5]; UBA6 (A0AVT1)): 0.964
Abundance Ratio: log2 (compound) / (1 DMSO) ([5]; UBA6 (A0AVT1)): -0.04606
DOP1B protein level (total proteome profiling) ([5]; A549 cells, 5 μM): decreased
HINT2 protein level (total proteome profiling) ([5]; A549 cells, 5 μM): partly decreased
TM7SF3 protein level (total proteome profiling) ([5]; A549 cells, 5 μM): decreased
Dmax (PARK7 [6]; A549): ~80%
time from which PARK7 degradation is observed (PARK7 [6]; A549 cells, 5 μM): 4 h
time by which maximal PARK7 degradation is reached (PARK7 [6]; A549 cells, 5 μM, remained until 24 h): 8 h
concentration at which PARK7 degradation starts (PARK7 [6]; A549 cells, 0.1 to 5 μM, 8 h): 0.1 µM
PARK7 degradation in other tumor cell lines (PARK7 [6]; Hela, H1299, and MCF7 cells, 8 h): PARK7 degradation was observed in all these cells in a dose-dependent manner
PARK7 protein level (total proteome profiling) (PARK7 [7]): induced the degradation of PARK7
